Source: article PMC12040169 (PLOS Biology, 2025)

Test: in vitro
Conditions: human, hela cells, % viability

Row | Compound | viability at 28.5 h, 10 µM [%]
1 | CC(=O)Nc1cccc(NC(=O)N2CCNC(=O)C2)c1 [CBK155863] | 77.7
2 | CC(C)CNC(=O)N1CCNC(=O)C1 [CBK155864] | 86.4
3 | O=C1CN(C(=O)NCCc2c[nH]c3ccccc23)CCN1 [CBK155866] | 95.8
4 | O=C1CN(C(=O)NCc2ccc(Cl)cc2)CCN1 [CBK155867] | 109
5 | CC(C)CCNC(=O)N1CCNC(=O)C1 [CBK155874] | 98.3
6 | COc1cc(NC(=O)N2CCNC(=O)C2)cc(OC)c1OC [CBK155875] | 104
7 | CC(NC(=O)N1CCNC(=O)C1)c1ccccc1 (stereo not shown) [CBK155877] | 96
8 | O=C1CN(C(=O)NC2CCc3ccccc32)CCN1 (stereo not shown) [CBK155878] | 97.5
9 | CN1CCC(N2CCN(C(=O)NCC3COc4ccccc4O3)CC2)CC1 (stereo not shown) [CBK155881] | 107
10 | CSCCCNC(=O)N1CCN(C2CCN(C)CC2)CC1 [CBK155882] | 101
11 | CN1CCC(N2CCN(C(=O)NCc3ccc4c(c3)OCO4)CC2)CC1 [CBK155885] | 88.3
12 | CN1CCC(N2CCN(C(=O)NCc3cccnc3)CC2)CC1 [CBK155889] | 89.2
13 | COc1cc(CNC(=O)N2CCN(C3CCN(C)CC3)CC2)cc(OC)c1OC [CBK155893] | 93.3
14 | CN1CCC(N2CCN(C(=O)Nc3ccc4c(c3)OCCO4)CC2)CC1 [CBK155898] | 87
15 | CC(C)CNC(=O)N1CCN(C2CCN(C)CC2)CC1 [CBK155902] | 95.3
16 | CC(C)C(=O)N1CCC(OCc2ccc(-c3ccc(C(=O)N(C)C)cc3)cc2S(C)(=O)=O)CC1 [CBK155921] | 102
17 | CC(C)(C)COC(=O)N1CCC2(CC1)CC(=O)N(Cc1ccc(S(C)(=O)=O)cc1)C2=O [CBK155949] | 91.4
18 | COc1ccc(OC(=O)N2CCC3(CC2)CC(=O)N(Cc2ccc(S(C)(=O)=O)cc2)C3=O)cc1 [CBK155952] | 99.3
19 | CN(C)C(=O)N1CCC2(CC1)CC(=O)N(Cc1ccc(S(C)(=O)=O)cc1)C2=O [CBK155957] | 104
20 | COc1ccc(CNC(=O)N2CCCCC2CO)cc1OC (stereo not shown) [CBK155981] | 92.8
21 | COc1cc(NC(=O)N2CCCCC2CO)cc(OC)c1OC (stereo not shown) [CBK155986] | 92
22 | CC(NC(=O)N1CCCCC1CO)c1ccccc1 (stereo not shown) [CBK155988] | 93.1

Row | Compound | viability at 28.5 h, 10 µM [%]
23 | O=C(Nc1cccnc1)N1CCCCC1CO (stereo not shown) [CBK155990] | 96.9
24 | CSCCCNC(=O)N(C)C1CCN(C)C1 (stereo not shown) [CBK155995] | 104
25 | CN1CCC(N(C)C(=O)NCCN2CCOCC2)C1 (stereo not shown) [CBK156002] | 96.3
26 | COc1ccc2[nH]cc(CCNC(=O)N(C)C3CCN(C)C3)c2c1 (stereo not shown) [CBK156004] | 112
27 | CN1CCC(N(C)C(=O)NCc2ccc(C#N)cc2)C1 (stereo not shown) [CBK156005] | 89.3
28 | COc1ccc(CCNC(=O)N(C)C2CCN(C)C2)cc1OC (stereo not shown) [CBK156007] | 97.9
29 | CN1CCC(N(C)C(=O)NCCc2c[nH]c3ccccc23)C1 (stereo not shown) [CBK156012] | 85.4
30 | CN1CCC(N(C)C(=O)NCCOc2ccccc2)C1 (stereo not shown) [CBK156018] | 107
31 | COc1ccc(CNC(=O)N(C)C2CCN(C)C2)cc1OC (stereo not shown) [CBK156020] | 97.6
32 | CN1CCC(N(C)C(=O)NCCCN2CCCC2=O)C1 (stereo not shown) [CBK156021] | 92.3
33 | Cc1cc(CNC(=O)N2CCCC(CO)C2)no1 (stereo not shown) [CBK156028] | 94.5
34 | O=C(NCc1cccc(C(F)(F)F)c1)N1CCCC(CO)C1 (stereo not shown) [CBK156033] | 89.5
35 | O=C(NCc1ccc2c(c1)OCO2)N1CCCC(CO)C1 (stereo not shown) [CBK156034] | 104
36 | O=C(NCc1cccc2ccccc12)N1CCCC(CO)C1 (stereo not shown) [CBK156035] | 112
37 | O=C(NC(c1ccccc1)c1ccccc1)N1CCCC(CO)C1 (stereo not shown) [CBK156036] | 95.4
38 | N#Cc1ccc(CNC(=O)N2CCCC(CO)C2)cc1 (stereo not shown) [CBK156043] | 94.3
39 | O=C(Nc1ccc2[nH]ccc2c1)N1CCCC(CO)C1 (stereo not shown) [CBK156044] | 86.8
40 | CC(=O)Nc1cccc(NC(=O)N2CCCC(CO)C2)c1 (stereo not shown) [CBK156049] | 108
41 | O=C(NCc1c(Cl)cccc1Cl)N1CCCC(CO)C1 (stereo not shown) [CBK156054] | 95.7
42 | O=C(NCCOc1ccccc1)N1CCCC(CO)C1 (stereo not shown) [CBK156058] | 99.6
43 | O=C1CCCN1CCCNC(=O)N1CCCC(CO)C1 (stereo not shown) [CBK156063] | 94.3
44 | CC(NC(=O)N1CCCC(CO)C1)c1ccccc1 (stereo not shown) [CBK156066] | 87.1

Row | Compound | viability at 28.5 h, 10 µM [%]
45 | O=C(Nc1cccnc1)N1CCCC(CO)C1 (stereo not shown) [CBK156068] | 92.4
46 | O=C(O)C1CCN(C(=O)NCc2ccc(F)cc2)CC1 [CBK156070] | 117
47 | COc1cc(NC(=O)N2CCC(C(=O)O)CC2)cc(OC)c1OC [CBK156076] | 97.8
48 | Cc1ccc(NC(=O)N2CCC(C(=O)O)CC2)cc1 [CBK156077] | 105
49 | CS(=O)(=O)c1ccc(-c2ccc3c(c2)C(=O)NC(C2CCN(C(=O)OCc4ccccc4)CC2)O3)cc1 (stereo not shown) [CBK156087] | 98.1
50 | CN1CCC(N2CCN(C(=O)NCC(c3ccccc3)c3ccccc3)CC2)CC1 [CBK156096] | 92.5
51 | CN1CCC(N2CCN(C(=O)NCCOc3ccccc3)CC2)CC1 [CBK156098] | 86.9
52 | CN1CCC(N2CCN(C(=O)NC3CCc4ccccc43)CC2)CC1 (stereo not shown) [CBK156110] | 106
53 | O=C(c1cccnc1NCc1ccc2c(c1)OCO2)N1CCNCC1 [CBK156112T] | 104
54 | CCN(CC)C(=O)C1CCCN(C(=O)NCCCN2CCN(C)CC2)C1 (stereo not shown) [CBK156115] | 89.7
55 | CCN(CC)C(=O)C1CCCN(C(=O)NCCCSC)C1 (stereo not shown) [CBK156118] | 95.1
56 | CCN(CC)C(=O)C1CCCN(C(=O)NCc2ccc(Cl)c(Cl)c2)C1 (stereo not shown) [CBK156119] | 98.8
57 | CCN(CC)C(=O)C1CCCN(C(=O)NCCc2c[nH]cn2)C1 (stereo not shown) [CBK156124] | 96.9
58 | CCN(CC)C(=O)C1CCCN(C(=O)NC(c2ccccc2)c2ccccc2)C1 (stereo not shown) [CBK156125] | 106
59 | CCN(CC)C(=O)C1CCCN(C(=O)NCc2ccc(C#N)cc2)C1 (stereo not shown) [CBK156132] | 102
60 | CCN(CC)C(=O)C1CCCN(C(=O)Nc2ccc3[nH]ccc3c2)C1 (stereo not shown) [CBK156133] | 98
61 | CCN(CC)C(=O)C1CCCN(C(=O)NCCc2ccc(OC)c(OC)c2)C1 (stereo not shown) [CBK156134] | 97.7
62 | CCN(CC)C(=O)C1CCCN(C(=O)Nc2ccc3c(c2)OCCO3)C1 (stereo not shown) [CBK156135] | 92.3
63 | CCN(CC)C(=O)C1CCCN(C(=O)Nc2ccc(Cl)cc2)C1 (stereo not shown) [CBK156136] | 90.1
64 | CCN(CC)C(=O)C1CCCN(C(=O)NCCc2c[nH]c3ccccc23)C1 (stereo not shown) [CBK156140] | 99.8
65 | CCN(CC)C(=O)C1CCCN(C(=O)NCC(c2ccccc2)c2ccccc2)C1 (stereo not shown) [CBK156145] | 94.4
66 | CCN(CC)CCCNC(=O)N1CCCC(C(=O)N(CC)CC)C1 (stereo not shown) [CBK156149] | 94.1

Row | Compound | viability at 28.5 h, 10 µM [%]
67 | CCOC(=O)CCCNC(=O)N1CCCC(C(=O)N(CC)CC)C1 (stereo not shown) [CBK156158] | 92.3
68 | CCOC(=O)N1CCC(NC(=O)N2CCCC(C(=O)N(CC)CC)C2)CC1 (stereo not shown) [CBK156159] | 109
69 | O=C(NCc1ccc2c(c1)OCO2)N1CCCCC1CO (stereo not shown) [CBK156166] | 89.3
70 | O=C(NCc1cccnc1)N1CCCCC1CO (stereo not shown) [CBK156169] | 105
71 | O=C(Nc1ccc2c(c1)OCCO2)N1CCCCC1CO (stereo not shown) [CBK156178] | 105
72 | O=C(Nc1ccccc1Cl)N1CCCCC1CO (stereo not shown) [CBK156180] | 91.9
73 | O=C(NCc1c(Cl)cccc1Cl)N1CCCCC1CO (stereo not shown) [CBK156184] | 99.5
74 | NC(=O)c1ccc(NC(=O)N2CCCCC2CO)cc1 (stereo not shown) [CBK156185] | 83
75 | O=C(NCC(c1ccccc1)c1ccccc1)N1CCCCC1CO (stereo not shown) [CBK156186] | 93.5
76 | COc1ccc(CCNC(=O)N2CCCCC2CO)cc1 (stereo not shown) [CBK156188] | 92.8
77 | CC(=O)NCc1cccc(-c2cc(C(=O)O)cnc2-c2ccc(Cl)cc2)c1 [CBK156194] | 90.9
78 | O=C(NCc1cccs1)c1ccc(-c2ccc(OC(F)(F)F)cc2)nc1 [CBK156221] | 90
79 | O=C(NCCc1ccc(O)cc1)c1ccc(-c2ccc(OC(F)(F)F)cc2)nc1 [CBK156224] | 95.8
80 | CCNC(=O)c1ccc(-c2ccc(OC(F)(F)F)cc2)nc1 [CBK156230] | 110
81 | CN1CCCC1CCNC(=O)c1ccc(-c2ccoc2)nc1 (stereo not shown) [CBK156255] | 99.8
82 | CN1CCN(CCCNC(=O)c2ccc(-c3ccoc3)nc2)CC1 [CBK156257] | 93.3
83 | Cc1cnc(CNC(=O)c2ccc(-c3ccoc3)nc2)cn1 [CBK156267] | 109
84 | O=C(NCc1ccco1)c1ccc(-c2ccoc2)nc1 [CBK156279] | 105
85 | O=C(c1ccc(-c2ccoc2)nc1)N1CCCC1 [CBK156284] | 84.6
